The test system of experiment [1] is A549 cells. As to the kind of experiment: MTT antiproliferation assay, A549. The settings on record: read-out: IC50 to cell lines, A549, exposed to tested compounds for 48 h. A general note: Formazan colour is commonly taken as a measure of viable cells.
Experimental: (§2) The cancer cell lines HeLa, A549, MCF-7, and A431 were obtained from the Center for Cell Resource of Peking Union Medical College Hospital, except that A549 cisplatin-resistant subline A549/DDP was obtained by incubation of increased concentration of cisplatin in the culture media until the IC50 value toward cisplatin was above three times of that of A549 cells. The cells were maintained in DMEM (Invitrogen, USA) media supplemented with 10% fetal calf serum (HyClone, USA), 1% PS at 310 K with 5% CO2. The IC50 values were determined using 3-(4,5-dimethyl-2-thiazolyl)-2,5-diphenyl-2-H-tetrazolium bromide (MTT) assay. […] Then cells were exposed to each tested compound at eight concentrations for 48 h. The resulting solution was removed and washed for two times using PBS; then 100 μl cell culture medium containing MTT (0.5 mg/ml) was added to the wells and incubated at 310 K for 4 h. Finally, the MTT media was removed and 100 μl DMSO added to each well to dissolve the formazan crystals. The optical density (OD) values were measured using a microplate reader (SpectraMax M5) at the wavelength of 570 nm. […] The IC50 value was calculated in Origin 8.0 using the logistic regression model. All reported values were averages of six independent experiments and expressed as mean ± standard deviation (SD).
The test system of experiment [2] is A431 cells. As to the kind of experiment: MTT antiproliferation assay, A431. To be noted: read-out: IC50 to cell lines, A431, exposed to tested compounds for 48 h.
Experimental: as §2
For experiment [3], the system named is HeLa cells. As to the kind of experiment: MTT antiproliferation assay, HeLa. The settings on record: read-out: IC50 to cell lines, HeLa, exposed to tested compounds for 48 h.
Experimental: as §2
Experiment [4] has as its system MCF-7 cells. As to the kind of experiment: MTT antiproliferation assay, MCF-7. To be noted: read-out: IC50 to cell lines, MCF-7, exposed to tested compounds for 48 h.
Experimental: as §2
In experiment [5] the test system is A549 cisplatin-resistant subline A549/DDP. As to the kind of experiment: MTT antiproliferation assay, A549/DDP. To be noted: read-out: IC50 to cell lines, A549/DDP, exposed to tested compounds for 48 h.
Experimental: as §2
Experiment [6] deals with T1, EGFR (kinase domain only) (Homo sapiens, UniProt P00533).
T1 construct: mixed with as-prepared EGFR (kinase domain only) solution; purchased Cell Signaling Technology, Inc. (assay kit); 7909
As to the kind of experiment: EGFR inhibition by ELISA. It is filed as biochemical. The settings on record: ELISA in the presence of 200 μM of ATP. How it is done:
Enzyme-linked immunosorbent assay (ELISA) was employed to evaluate the inhibition of compounds against EGFR. The ELISA screening was performed following the instruction provided by the supplier of the assay kits (no. 7909, Cell Signaling Technology, Inc.). An aliquot (10 μl) of the enzyme solution was added to 415 μl dithiothreitol (DTT) kinase buffer, which consists of 1.25 M DTT and 4 × HTScan® tyrosine kinase buffer [240 mM HEPES (pH 7.5), 20 mM MgCl2, 20 mM MnCl2, and 12 μM Na3VO4]. Each tested Pt compound was dissolved in dimethyl sulfoxide (DMSO) to give a 4 mM solution which was then diluted by deionized water prior to use. The ATP/peptide mixture was prepared by addition of 10 μl of 2.5 mM ATP to 125 μl of 6 μM substrate peptide and then diluted with D2O to 250 μl. An aliquot (12.5 μl) of the solution of a tested compound was mixed with as-prepared EGFR (kinase domain only) solution [12.5 μl, in 50% glycerol, containing 50 mM HEPES (pH = 7.6), 150 mM NaCl, 0.1% Triton, and 1 mM DTT, Sigma Chemical Company] and incubated at 298 K for 5 min, followed by addition of 25 μl of ATP/substrate mixture, and then the resulting mixture was incubated at 310 K for 1 h. The phosphorylation reaction was terminated by the addition of 50 μl/well stop buffer (50 mM EDTA, pH = 8). Each well of a microtiter plate was coated with 100 μl of 10 μg/ml streptavidin (Tianjin Biotechnology Co. Ltd., China) in carbonate–bicarbonate buffer and incubated overnight at 277 K and then blocked with 1.5% bovine serum albumin (BSA, Xinjingke Biotechnology Co. Ltd., China) in PBS/T (PBS solution containing 0.05% Tween-20) at 310 K for 2 h, followed by three times of washing with PBS/T prior to use. Then, 25 μL/well of each enzymatic reaction mixture and 75 μL/well of D2O were added to the plate (in triplicate) for incubation at 310 K for 1 h. Following three times of washing with PBS/T, 100 μl of primary antibody (phospho-tyrosine mouse mAb, 1:1,000 in PBS/T with 1.5% BSA) was added to each well, and the plate was incubated at 310 K for another 1 h. The plate was again washed three times with PBS/T, and then 100 μl of the secondary antibody (HRP-labeled goat anti-mouse IgG, from Zhongshan Golden Bridge Biotechnology Co. Ltd., China, diluted 1:1,000 in PBS/T with 1.5% BSA) was added to each well and incubated for 1 h at 310 K, followed by three times of washing with PBS/T. Finally, 100 μl of 3,3′,5,5′-tetramethylbenzidine (TMB, Xinjingke Biotechnology Co. Ltd., China) substrate was added to each well, and the plate was incubated at 310 K for 15 min, and then the reaction was stopped by addition of 100 μl of 2 M H2SO4 to each well, and the plate was read on the ELISA plate reader (SpectraMax M5 Molecular Devices Corporation) at 450 nm to determine the OD values. […]

Experiment [7] relates to calf thymus DNA (ct-DNA). As to the kind of experiment: Competitive displacement of EB from ct-DNA by fluorescence titration (intercalation). It is filed as binding. The settings on record: Tris-HCl pH 7.4, 310 K, λex = 500 nm. How it is done: (§1) Complexes 2 and 4 were dissolved in DMSO to yield a panel of 0.25, 0.5, 1.0, 1.5, 2.0, 3.0, 4.0, and 5.0 mM solutions. The calf thymus DNA (ct-DNA) was dissolved in Tris-HCl buffer (pH = 7.4) to give a […] solution. Ethidium bromide (EB) (10 mM, 2 μl) or Hoechst 33342 (4 mM, 5 μl) and ct-DNA ([…], 978 or 975 μl) was incubated at 310 K for 0.5 h. Then the DMSO solution of complexes (20 μl) was added to the resulting solution and kept incubated. After 2 h, each reaction mixture was measured on an F-4500 fluorescence spectrophotometer (HITACHI) with excitation wavelength at 500 nm and emission spectra from 520 to 700 nm for EB mixed solution and excitation wavelength at 370 nm and emission spectra from 400 to 650 nm for Hoechst 33342 mixed solution. A modified Stern–Volmer plot (Sarwar et al., [2015]) was employed to evaluate the affinity of complexes toward DNA.

Experiment [8] concerns calf thymus DNA (ct-DNA). As to the kind of experiment: Competitive displacement of Hoechst 33342 from ct-DNA by fluorescence titration (minor groove binding). To be noted: for affinity in minor groove binding relative to intercalation with DNA: Ksv Hoechst vs Ksv EB; for Ksv (Stern–Volmer quenching constant), replacing Hoechst from ct-DNA: Tris-HCl pH 7.4, 310 K, λex = 370 nm. The method, then: as §1

The record followed here is article PMC7199514 (Frontiers in Chemistry, 2020).

T1 sequence (P00533 712-979 limits assumed): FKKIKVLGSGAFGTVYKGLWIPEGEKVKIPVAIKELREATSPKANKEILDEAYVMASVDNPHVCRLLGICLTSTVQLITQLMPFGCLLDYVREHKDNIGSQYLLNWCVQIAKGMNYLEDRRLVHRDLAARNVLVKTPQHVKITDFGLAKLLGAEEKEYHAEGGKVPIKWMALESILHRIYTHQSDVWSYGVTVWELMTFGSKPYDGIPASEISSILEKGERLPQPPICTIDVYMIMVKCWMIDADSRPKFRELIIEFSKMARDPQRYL

Turning to `N.N.[Cl][Pt][Cl]` [Cisplatin, reference compound], the IC50 was 10.1 ± 1.6 µM in experiment [1]; 11.1 ± 0.4 µM in experiment [2]; 12.9 ± 0.6 µM in experiment [3]; 15.6 ± 0.8 µM in experiment [4]; 30.9 ± 1.1 µM in experiment [5].
In the case of `COc1cc2ncnc(Nc3ccc(F)c(Cl)c3)c2cc1OCCn1cc[n+]([Pt-2]23[n+]4ccccc4-c4cc(-c5ccc(C)cc5)cc([n+]42)-c2cccc[n+]23)c1.F[P-](F)(F)(F)(F)F.F[P-](F)(F)(F)(F)F` [Complex 1], the IC50 is 9.2 ± 0.6 nM in experiment [6]; 13.2 ± 1.8 µM in experiment [1]; 7.7 ± 1.8 µM in experiment [2]; 29.8 ± 5 µM in experiment [3]; 20.3 ± 2.7 µM in experiment [4]; 28.9 ± 1.7 µM in experiment [5].
`COc1cc2ncnc(Nc3ccc(F)c(Cl)c3)c2cc1OCCCn1cc[n+]([Pt-2]23[n+]4ccccc4-c4cc(-c5ccc(C)cc5)cc([n+]42)-c2cccc[n+]23)c1.F[P-](F)(F)(F)(F)F.F[P-](F)(F)(F)(F)F` [Complex 2]: the IC50 in experiment [6] came to 7 ± 3 nM; in experiment [1] it was 6.5 ± 2.5 µM; in experiment [2] it was 1.4 ± 0.4 µM; in experiment [3], 19.4 ± 5.6 µM; in experiment [4] it was 27.7 ± 2.2 µM; in experiment [5], 13.5 ± 1.8 µM. Besides, in experiment [7], the “Ksv (Stern–Volmer quenching constant), replacing EB from ct-DNA” value was 25900 M⁻¹. In experiment [8], the “affinity in minor groove binding relative to intercalation with DNA” value is given as ~ 10 times. Also, the “Ksv (Stern–Volmer quenching constant), replacing Hoechst from ct-DNA” value in experiment [8] was 313000 M⁻¹.
On to `COc1cc2ncnc(Nc3ccc(F)c(Cl)c3)c2cc1OCCn1cc[n+]([Pt-2]23[n+]4ccccc4-c4cc(-c5ccc(Br)cc5)cc([n+]42)-c2cccc[n+]23)c1.F[P-](F)(F)(F)(F)F.F[P-](F)(F)(F)(F)F` [Complex 3], for which the IC50 was 10.9 ± 3 nM in experiment [6]; 12.2 ± 2.2 µM in experiment [1]; 7.4 ± 0.4 µM in experiment [2]; 13.4 ± 1.3 µM in experiment [3]; 24.8 ± 1.1 µM in experiment [4]; 32 ± 1.6 µM in experiment [5].
Take `COc1cc2ncnc(Nc3ccc(F)c(Cl)c3)c2cc1OCCCn1cc[n+]([Pt-2]23[n+]4ccccc4-c4cc(-c5ccc(Br)cc5)cc([n+]42)-c2cccc[n+]23)c1.F[P-](F)(F)(F)(F)F.F[P-](F)(F)(F)(F)F` [Complex 4]: the IC50 in experiment [6] came out at 9.6 ± 2.5 nM; in experiment [1], 11.6 ± 1.1 µM; in experiment [2], 7.9 ± 3.2 µM; in experiment [3] it was 39.4 ± 0.1 µM; in experiment [4], 19.9 ± 2.7 µM; in experiment [5], 26.6 ± 3 µM. Also, the “Ksv (Stern–Volmer quenching constant), replacing EB from ct-DNA” value in experiment [7] came out at 18900 M⁻¹. Further, the “affinity in minor groove binding relative to intercalation with DNA” value in experiment [8] is recorded as ~ 10 times. For the same molecule, the “Ksv (Stern–Volmer quenching constant), replacing Hoechst from ct-DNA” value in experiment [8] worked out at 311000 M⁻¹.
